The record followed here is patent publication US20060122153A1, “Antineoplastic ether lipid compounds with modifications at the sn-2 carbon” (priority 2003, published 2006).

Molecules are shown by their SMILES. “And” between values parts separate entries of the source, which are not always exact repeats. Equal entries are not always repeated.

The subject of one experiment is NIH-3T3. In words: In vitro growth inhibition (GI50), SRB assay, normal fibroblast. Format: cell-based, mouse. As to conditions: NIH-3T3 normal murine fibroblast cell line, 3 days. The source says: The following cell lines were selected from the cell bank for screening and GI50 studies: MCF-7: human breast tumor, MCF-7/ADR: MCF-7 adriamycin resistant subline, HT-29: human colon carcinoma, A-549: human non-small cell lung cancer, NIH-3T3: mouse Swiss embryo fibroblast and WI-38: human lung fibroblast, SKMEL-28: human melanoma, Lewis Lung: mouse lung carcinoma, DU-145: prostate carcinoma, B16F10: mouse melanoma, L1210: murine lymphocytic leukemia, P-388: murine leukemia, U-937: human histolytic lymphoma. Except HT-29, WI-38, NIH-3T3 and Lewis Lung which were obtained from the American Type Culture Collection (Rockville, Md.) all the other cell lines were obtained from National Cancer Institute—Frederick Research Facility (Frederick, Md.). All the cell lines were grown in RPMI-1640 medium containing 10% fetal bovine serum (FBS) except WI-38 and DU-145 which were grown in EMEM+10% FBS at 37° C., 5% CO2 and 100% humidity and NIH-3T3, Lewis Lung, B16F10 and L1210 which were grown in DMEM containing 10% FBS (10% HS for L1210). […]
The test compounds were made in-house and the compounds were dissolved PBS or saline at a stock concentration of approximately 20 mM, which is 400 times the desired final maximum test concentration. […] After 3 days of incubation, cell growth was determined.
The SRB assay was performed as described by Monks, A., Scudiero, D., Skehan, P., Shoemaker, R., Paull, K., Vistica, D., Hose, C., Langley, J., Cronise, P., and Vaigro-Wolff, A. Feasibility of a high-flux anticancer drug screen using a diverse panel of cultured human tumo-r cell lines. […] Bound SRB was solubilized with Tris buffer (10 mM), and the ODs were read using an automated plate reader (Bio-Rad, Model 3550-UV) at 490 nm. Background values were subtracted from the test data, and the data was calculated as a % of control. […] Percentage growth was calculated as described by, Peters, A. C., Ahmad, I., Janoff, A. S., Pushkareva, M. Y., and Mayhew, E. Growth Inhibitory effects of liposome-associated 1-o-octadecyl-2-o-methyl-sn-glycero-3-phosphocholine. […]
On the technique in general: In SRB staining, fixed cells bind dye roughly in proportion to their protein.

In another experiment the test system is NCI-H226. In words: NCI growth inhibition screen, non-small cell lung panel. Set-up: key to Performance as compared to ET-18-O—CH3: = means equivalent activity; + means that it appears to be significantly better (i.e., by ˜2x); < means it appears to be less active than ET18OCH3 (˜2x); a combination like =/+ or </+ means that activity is dependent upon the isomer; a combination like =/+ or </+ means that activity is dependent upon the isomer. Format: cell-based, human. As to conditions: for Performance as compared to ET-18-O—CH3: NCI-H226, NS cell lung, from GI50s; for activity compared to ET-18-OCH3 (in words): NCI-H226 cell line, NCI screen. The procedure: (§1) Candidates deemed suitable for in vivo testing were then synthesized in large scale quantities and some of this material was sent to the NCI's Developmental Therapeutics Program for a battery of growth inhibitory studies against various human tumor cell lines (60 cell lines, 9 different panels). The remainder of the material was used to assess in vivo efficacy using murine tumor models. Additionally, studies were conducted on the lead candidates to discern mechanism of action with particular emphasis on these agents apoptotic ability as measured by caspase 3 activity. The details (materials and methods) for these various assays are described further in the following discussion.
(§2) Ten compounds were also sent to NCI's Drug Discovery Program for screening against numerous human tumor cell lines (9 panels total: renal ovarian, colon, CNS, non-small cell lung, leukemia, breast, melanoma, and prostate). The data are shown in FIGS. 2a-i which also include data regarding D- and L-ET-18-OCH3 (listed as L-EL and D-EL in the figures). Upon examining the data, one is struck by how 1R and 1a′S standout in comparison to the other compounds, especially for the renal, ovarian, colon, and CNS panels.

The test system of a further experiment is DU145. The experiment is described as follows: NCI growth inhibition screen, prostate panel. Format: cell-based, human. As to conditions: from GI50s. On the set-up: key: = means equivalent activity; + means that it appears to be significantly better (i.e., by ˜2x); < means it appears to be less active than ET18OCH3 (˜2x); a combination like =/+ or </+ means that activity is dependent upon the isomer; a combination like =/+ or </+ means that activity is dependent upon the isomer. The procedure: as §1, §2

The next experiment relates to PC-3. The experiment is described as follows: NCI growth inhibition screen, prostate panel. On the set-up: key: = means equivalent activity; + means that it appears to be significantly better (i.e., by ˜2x); < means it appears to be less active than ET18OCH3 (˜2x); a combination like =/+ or </+ means that activity is dependent upon the isomer; a combination like =/+ or </+ means that activity is dependent upon the isomer. Format: cell-based, human. As to conditions: PC-3, Prostate; from GI50s. The protocol:
as §1, §2

For another experiment, the system named is HOP-62. In words: NCI growth inhibition screen, non-small cell lung panel. Format: cell-based, human. As to conditions: for Performance as compared to ET-18-O—CH3: HOP-62, NS cell lung, from GI50s; for activity compared to other compounds (in words): HOP-62 cells, NCI screen. The procedure: as §1, §2
The test system of experiment [1] is human tumor cell lines (9 panels). The experiment is described as follows: NCI growth inhibition screen, all panels. Format: cell-based. As to conditions: for activity as compared to ET-18-OCH3 (in words): all NCI panels; for activity compared to ET-18-OCH3 isomers (in words): colon and CNS panels of cell lines. The procedure: as §1, §2

A word on the GI50: it is the concentration that inhibits growth by half.

In turn, `CCCCCCCCCCCCCCCCCCOCC(COP(=O)([O-])OCC[N+](C)(C)C)OC` [D-ET18OCH3, 1-O-octadecyl-2-O-methyl-glycerophosphocholine, reference compound] had a GI50 in the experiment on NIH-3T3 of 41.4 µM.

Turning to `CCCCCCCCCCCCCCCCCCOC[C@@H](COP(=O)([O-])OCC[N+](C)(C)C)OS(C)(=O)=O` [1a′S], the “Performance as compared to ET-18-O—CH3” value with NCI-H226 was 32; with DU145, 0; in the experiment with PC-3, 0; in the experiment on HOP-62, “+/=”. The “activity compared to ET-18-OCH3 (in words)” value in the experiment with NCI-H226 was “significantly better than ET-18-OCH3”. The “activity compared to other compounds (in words)” value in the experiment with HOP-62 is “better than a few of the other compounds”. Also, the “activity as compared to ET-18-OCH3 (in words)” value in experiment [1] was “equal or greater in activity”. Besides, in experiment [1], the “activity compared to ET-18-OCH3 isomers (in words)” value is “more active than even the ET-18-OCH3 isomers”. Also, the GI50 in the experiment with NIH-3T3 is 30.3 µM and 35.2 µM.

In the case of `CCCCCCCCCCCCCCCCCCOCC(COP(=O)([O-])OCC[N+](C)(C)C)OS(C)(=O)=O` (stereo not drawn) [Compound 1aR], in the experiment on NCI-H226, the “Performance as compared to ET-18-O—CH3” value is reported as “+” and the “activity compared to ET-18-OCH3 (in words)” value is recorded as “significantly better than ET-18-OCH3”. Besides, the “Performance as compared to ET-18-O—CH3” value in the experiment with DU145 is listed as “=”. Besides, in the experiment with PC-3, the “Performance as compared to ET-18-O—CH3” value is recorded as “=”. In the experiment with HOP-62, the “Performance as compared to ET-18-O—CH3” value was “+/=” and the “activity compared to other compounds (in words)” value is “better than a few of the other compounds”. Also, in experiment [1], the “activity as compared to ET-18-OCH3 (in words)” value was “equal or greater in activity” and the “activity compared to ET-18-OCH3 isomers (in words)” value is reported as “more active than even the ET-18-OCH3 isomers”.
